Publication PMC12363518, “Azobenzene-Modified Temperature-Responsive Short Elastin-like Peptides for Photo-Controlled Phase Transition” (ACS Synthetic Biology, 2025)
Numbered stars: 1 amine (or outer) side, 2 acyl side, 3 side chain; on linkers, the order of the positions; unused ones are H or OH. Bridge positions count the residues as written; N and C are the ends. Square brackets hold non-standard residues; d marks the D form. Peptide text beside a SMILES is read from it. I, II: the chains in the order shown. X1 = O=C(c1ccc(N=Nc2ccc(C(=O)[*:2])cc2)cc1)[*:1]; X2 = O=C(c1ccc(N=Nc2ccc(N[*:1])cc2)cc1)[*:2]; X3 = c1cc(N[*:1])ccc1N=Nc1ccc(N[*:2])cc1

Key:
[1] = not given; remark: listed apart in the source
[2] = Particle size distribution by dynamic light scattering (DLS); format: physicochemical; conditions: PBS
[3] = Turbidity measurement (OD600) of temperature-dependent phase separation, Tt; format: physicochemical; conditions: even at 2.38 mM (5.00 mg/mL) in PBS; turbidity OD600
Protocol: The ability of the ELP–azobenzene conjugates to self-assemble was investigated by using turbidity measurements. In addition, we evaluated whether the photoisomerization of the azobenzene moieties induced differences in the aggregation ability of these analogues. Each peptide analogue was dissolved in PBS at different concentrations according to its water solubility. To quantitatively evaluate the aggregation ability, the transition temperature (T t) of the peptides was calculated from the change in optical density at a wavelength of 600 nm (OD600) associated with the increasing temperature (Table and Figure ).
The temperature-dependent self-assembly property of synthesized peptides was evaluated by using a JASCO V-660 spectral photometer (JASCO Co.). Each peptide was dissolved in PBS buffer or phosphate buffer solutions at various concentrations. Three types of phosphate buffers with the same ionic strength (μ = 0.100) but different pH (pH 7.4, 2.1, and 11.5) were prepared: phosphate buffer (pH 7.4, 29.4 mM Na2HPO4, 11.7 mM NaH2PO4), phosphate buffer (pH 2.1, 10.0 mM NaH2PO4, 10.5 mM phosphoric acid), and phosphate buffer (pH 11.5, 9.58 mM Na3PO4, 14.2 mM Na2HPO4). Turbidity was measured at 600 nm with increasing or decreasing temperature at a rate of 0.5 °C/min from 5 °C. The measurements were performed for the dark-adapted solution and after successive irradiation with UV light, visible light, and UV light. Each assay was repeated three times with different peptide solutions that were prepared separately. The phase separation property was described by the phase transition temperature (T t), which is the temperature at which the turbidity of the solution reaches half its maximum value.

[4] = Water solubility (observation); format: physicochemical; conditions: qualitative observation

| Compound | peak wavelength n–π* [nm] | peak wavelength π–π* [1] [nm] | self-assembly in dark-adapted solution (DLS) [2] | phase separation in PBS [3] | water solubility [4] |
| --- | --- | --- | --- | --- | --- |
| CC(C)[C@H](NC(=O)CNC(=O)[C@@H]1CCCN1C(=O)[C@H](Cc1ccccc1)NC(=O)CNC(=O)[C@@H](NC(=O)CNC(=O)[C@@H]1CCCN1C(=O)[C@@H](N)Cc1ccccc1)C(C)C)C(=O)NCC(=O)N[C@@H](CC(=O)O)C(=O)Nc1ccc(N=Nc2ccc(NC(=O)[C@H](CC(=O)O)NC(=O)CNC(=O)[C@@H](NC(=O)CNC(=O)[C@@H]3CCCN3C(=O)[C@H](Cc3ccccc3)NC(=O)CNC(=O)[C@@H](NC(=O)CNC(=O)[C@@H]3CCCN3C(=O)[C@@H](N)Cc3ccccc3)C(C)C)C(C)C)cc2)cc1 (I: H-FPGVGFPGVGD / II: H-FPGVGFPGVGD; linker I:C-II:C via X3) | 450 | 364 | – | – | – |
| CC(C)[C@H](NC(=O)CNC(=O)[C@@H]1CCCN1C(=O)[C@H](Cc1ccccc1)NC(=O)CNC(=O)[C@@H](NC(=O)CNC(=O)[C@@H]1CCCN1C(=O)[C@H](Cc1ccccc1)NC(=O)c1ccc(N=Nc2ccc(C(=O)N[C@@H](Cc3ccccc3)C(=O)N3CCC[C@H]3C(=O)NCC(=O)N[C@H](C(=O)NCC(=O)N[C@@H](Cc3ccccc3)C(=O)N3CCC[C@H]3C(=O)NCC(=O)N[C@H](C(=O)NCC(=O)O)C(C)C)C(C)C)cc2)cc1)C(C)C)C(=O)NCC(=O)O [Azb-2(F2)] (I: FPGVGFPGVG-OH / II: FPGVGFPGVG-OH; linker I:N-II:N via X1) | – | – | did not exhibit self-assembly | did not exhibit phase separation | – |
| CC(C)[C@H](NC(=O)CNC(=O)[C@@H]1CCCN1C(=O)[C@H](Cc1ccccc1)NC(=O)CNC(=O)[C@@H](NC(=O)CNC(=O)[C@@H]1CCCN1C(=O)[C@H](Cc1ccccc1)NC(=O)c1ccc(N=Nc2ccc(NC(=O)CNC(=O)[C@@H](NC(=O)CNC(=O)[C@@H]3CCCN3C(=O)[C@H](Cc3ccccc3)NC(=O)CNC(=O)[C@@H](NC(=O)CNC(=O)[C@@H]3CCCN3C(=O)[C@@H](N)Cc3ccccc3)C(C)C)C(C)C)cc2)cc1)C(C)C)C(=O)NCC(N)=O [F2-Azb-F2-NH2] (H-FPGVGFPGVG[X2]FPGVGFPGVG-NH2) | 450 | 356 | – | – | low water solubility |
| CC(C)[C@H](NC(=O)CNC(=O)[C@@H]1CCCN1C(=O)[C@H](Cc1ccccc1)NC(=O)CNC(=O)[C@@H](NC(=O)CNC(=O)[C@@H]1CCCN1C(=O)[C@H](Cc1ccccc1)NC(=O)c1ccc(N=Nc2ccc(NC(=O)CNC(=O)[C@@H](NC(=O)CNC(=O)[C@@H]3CCCN3C(=O)[C@H](Cc3ccccc3)NC(=O)CNC(=O)[C@@H](NC(=O)CNC(=O)[C@@H]3CCCN3C(=O)[C@@H](N)Cc3ccccc3)C(C)C)C(C)C)cc2)cc1)C(C)C)C(=O)NCC(=O)O [F2-Azb-F2] (H-FPGVGFPGVG[X2]FPGVGFPGVG-OH) | 444 | 354 | – | – | low water solubility |
